# Assay results taken from article PMC5745756, “N,N-disubstituted azines attenuate LPS-mediated neuroinflammation in microglia and neuronal apoptosis via inhibiting MAPK signaling pathways” (BMC Neuroscience, 2017).
# How the values were obtained:
# Assay type in all cases: cell-based, murine
# [1] = test system: NO production in LPS-activated BV-2 cells; assay: Nitrite (Griess) assay of NO production in LPS-activated BV-2 cells
# Experimental: […] or MTT assay was performed as described by our previous publication with slight modification. In order to measure MTT and NO production, BV-2 cells were plated into a 96-well plate at a density of 4 × 10^4 cells/well. […] Then, nitrite (a soluble oxidation product of NO) was detected in the culture media by using the Griess reaction. The supernatant (50 µL) was collected and mixed with an equal volume of Griess reagent (1% sulfanilamide in phosphoric acid and 0.1% N-1-napthylethylenediamine dihydrochloride). The absorbance was measured at 570 nm by using a microplate reader. Sodium nitrite was used to create a standard curve from which the NO2 concentration was calculated. The cell viability was evaluated by spectrophotometrically measuring the reduction of yellow 3-[4,5-dimethylthiazol-2-yl]-2,5-diphenyltetrazolium bromide (MTT) to purple formazan crystals. MTT was dissolved in DMEM, added to the culture plate containing cells at a final concentration of 0.5 mg/mL, and incubated for 1 h. The medium containing the MTT solution was carefully removed, and 200 µL DMSO was added to each well. After solubilizing the stained cells to produce a formazan-colored solution, the optical density (OD) was measured on a microplate reader at 570 nm, and the results were expressed as a percentage of the LPS-treated group. The same plate was used for the NO and MTT assays. The cell supernatant was used for the NO assay, and the plated cells were used for the MTT assay.
# The NO production and cell viability of LPS-activated BV-2 cells were measured after treatment with azine derivatives using Griess reagent and MTT assay, respectively.
# [2] = test system: COX-2; assay: Western blot of LPS-induced COX-2 expression in BV-2 cells
# Experimental: BV-2 cells were seeded in a 6-well plate at a density of 6 × 10^5 cells/well and exposed to LPS (100 ng/mL) in the presence or absence of compound 3 for required time. After treatment, cells were collected and lysed in cell lysis buffer (50 mM Tris–HCl, pH 8.0, 0.1% SDS, 150 mM NaCl, 1% NP-40, 0.02% sodium azide, 0.5% sodium deoxycholate, 100 µg/mL PMSF, and […]) for 24 h at 4 °C. The protein content was measured using a Bradford assay. Equal amounts of protein (30 µg) were separated using SDS-PAGE and transferred to a nitrocellulose membrane. […]
# Fig. 2 Effect of compound 3 on LPS-induced iNOS and COX2 expression in BV-2 cells. […] Similarly, LPS activation was made for 24 h as chronic BV2 activation and the iNOS and COX-2 expression was measured (d). α-Tubulin was used as the loading control. […] After 24 h, the culture medium was subsequently collected to measure the quantity of PGE2 (e), IL-6 (f), and TNF-α (g) using ELISA analysis. […]
# [3] = test system: N2a cells; assay: Neuronal cell viability (MTT) of N2a cells given conditioned media from LPS-stimulated BV-2 cells; conditions: Mus musculus, MTT after 24 h, read-out: N2a cell viability, % of the only LPS treated control value
# Experimental: N2a cells were used as a representative neuronal cell line for the examination of apoptotic neuron viability using direct treatment of compound 3 with TNF-α activation as well as conditioned media (CM) from LPS-stimulated BV-2 cells treated with compound 3 [28]. This assay was performed following the methods described in our previous study, with slight modifications. To measure neuron viability, BV-2 cells were first seeded and treated with 100 ng/mL LPS in the presence or absence of compound 3. After 24 h, the CM was collected and transferred to N2a cells for a further 24 h. The cell viability of N2a cells was measured using the MTT assay. Well differentiated neuronal cells were used for the experimental purpose as shown in Additional file 1: Fig. S1.
# Fig. 4 Neuroprotection of compound 3 in LPS-activated microglia in N2a cells. BV-2 microglial cells were pretreated with 5, 10, and 20 µM compound 3 for 30 min and stimulated with 100 ng/mL of LPS for 24 h. After 24 h of LPS treatment, the conditioned media (CM) were collected and transferred to N2a cells. After 24 h, MTT assay was done in the same CM treated N2a cells (a) and FACS analysis (b–h). An annexin V/PI apoptosis kit was used to quantify the percentage of cells undergoing apoptosis and necrosis (x-axis, annexin V; y-axis, PI) by using FACS analysis. CM-LPS treatment alone induced apoptosis and necrosis in N2a cells (g, h). […]
smiles,measurement,setting,value
"COc1cc(/C=C/C=N/N=C/C=C/c2ccc(O)c(OC)c2)ccc1O [Compound 3, 4,4′-(1E,1′E,3E,3′E)-3,3′-(hydrazine-1,2-diylidene)bis(prop-1-ene-1-yl-3-ylidene)bis(2-methoxyphenol)]",LPS-induced NO production,[1]; LPS-activated BV-2 cells,strongly inhibited
same,IC50,"[1]; Mus musculus, BV-2, 100 ng/mL LPS, 24 h, Griess reaction, read-out: IC50, concentration that caused 50% inhibition of NO production in LPS-activated BV-2 cells",12.5 µM
same,Expression of COX-2,"[2]; 5, 10 and 20 µM, 30 min pretreatment, LPS 100 ng/mL 6 h",significantly reduced
same,"LPS induced COX-2 activation, chronic",[2]; 24 h chronic LPS activation,dramatically rescued
same,viability at 10 µM,[3]; CM of BV-2 cells treated with 10 µM compound + LPS,199%
same,viability at 20 µM,[3]; CM of BV-2 cells treated with 20 µM compound + LPS,398%
